Biological target: EGFR (Homo sapiens, UniProt P00533)
Assay: Biochemical EGFR assay (ELISA, A431 cell lysate)
Set-up: A431 cell lysate (Screening Lab, SUGEN, Inc.); host or cells: A431
Conditions: read-out: bio EGFr IC50
How it was run: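 EGFR captured from A431 cell lysate onto anti-EGFR-coated plates, then incubated with test compound for 30 min at room temperature. Tyrosine phosphorylation with ATP/MnCl2 was stopped with EDTA after 5 min and detected by anti-phosphotyrosine ELISA with peroxidase/ABTS read-out.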

Chain of EGFR (P00533 25-1210): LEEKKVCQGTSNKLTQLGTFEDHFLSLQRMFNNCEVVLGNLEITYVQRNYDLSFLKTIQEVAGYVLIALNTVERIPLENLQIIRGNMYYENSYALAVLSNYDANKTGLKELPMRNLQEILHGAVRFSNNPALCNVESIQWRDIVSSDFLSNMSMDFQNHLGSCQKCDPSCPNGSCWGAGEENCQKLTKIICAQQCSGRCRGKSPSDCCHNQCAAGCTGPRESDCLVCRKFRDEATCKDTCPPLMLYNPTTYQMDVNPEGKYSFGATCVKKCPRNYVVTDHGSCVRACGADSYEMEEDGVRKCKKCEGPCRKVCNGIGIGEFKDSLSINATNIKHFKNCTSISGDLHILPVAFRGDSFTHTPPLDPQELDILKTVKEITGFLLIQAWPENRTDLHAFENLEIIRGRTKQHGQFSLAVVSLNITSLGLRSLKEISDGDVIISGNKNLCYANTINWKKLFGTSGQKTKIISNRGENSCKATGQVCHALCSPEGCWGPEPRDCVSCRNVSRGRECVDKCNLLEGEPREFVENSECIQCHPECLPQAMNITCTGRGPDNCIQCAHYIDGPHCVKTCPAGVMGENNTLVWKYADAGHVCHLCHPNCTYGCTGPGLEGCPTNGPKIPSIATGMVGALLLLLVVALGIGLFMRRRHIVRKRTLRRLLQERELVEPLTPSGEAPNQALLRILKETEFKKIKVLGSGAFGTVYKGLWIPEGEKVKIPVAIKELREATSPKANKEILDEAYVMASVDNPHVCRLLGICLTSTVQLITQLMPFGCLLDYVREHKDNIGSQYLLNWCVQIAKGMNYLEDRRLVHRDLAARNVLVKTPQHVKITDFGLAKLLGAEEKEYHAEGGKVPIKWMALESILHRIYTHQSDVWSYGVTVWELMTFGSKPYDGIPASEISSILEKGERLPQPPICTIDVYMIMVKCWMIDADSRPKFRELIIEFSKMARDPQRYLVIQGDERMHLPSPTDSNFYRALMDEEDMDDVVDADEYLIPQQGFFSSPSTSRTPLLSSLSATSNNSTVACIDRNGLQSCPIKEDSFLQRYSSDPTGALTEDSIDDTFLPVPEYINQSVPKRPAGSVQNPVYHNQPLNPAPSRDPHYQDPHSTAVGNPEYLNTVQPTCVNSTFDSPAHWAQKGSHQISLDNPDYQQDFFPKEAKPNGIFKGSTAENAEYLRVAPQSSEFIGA

| Structure (SMILES) | IC50 [µM] |
| --- | --- |
| COc1c(C(C)C)cc(/C=C2/C(=O)Nc3cc(O)ccc32)cc1C(C)C [Example 4, 3-(3,5-Diisopropyl-4-methoxybenzylidene)-6-hydroxy-1,3-dihydroindol-2-one] | > 100 |
| CC1(C)CCc2cc(/C=C3/C(=O)Nc4ccc(F)cc43)ccc2O1 [Example 23, 3-(2,2-Dimethylchroman-6-ylmethylene)-5-fluoro-1,3-dihydroindol-2-one] | > 100 |
| COc1ccc(/C=C2/C(=O)Nc3cc(NC(C)=O)ccc32)cc1-c1ccsc1 [Example 18, N-[3-(4-Methoxy-3-thiophene-3-ylbenzylidene)-2-oxo-2,3-dihydro-1H-indol-6-yl]-acetamide] | > 100 |
| COc1ccc(/C=C2/C(=O)Nc3ccc(F)cc32)cc1C1CCCC1 [Example 11, 3-(3-Cyclopentyl-4-methoxybenzylidene)-5-fluoro-1,3-dihydroindol-2-one] | > 100 |
| CC(C)c1cc(/C=C2/C(=O)Nc3ccc(Cl)cc32)cc(C(C)C)c1OCCN1CCOCC1 [Example 24, 5-chloro-3-[3,5-diisopropyl-4-(2-morpholin-4-ylethoxy)-benzylidene]-1,3-dihydroindol-2-one] | > 100 |
| COc1cc(C)c(/C=C2/C(=O)Nc3ncccc32)cc1C(C)C [Example 45, 3-(5-Isopropyl-4-methoxy-2-methylbenzylidene)-1,3-dihydro-pyrrolo[2,3-b]pyridin-2-one] | 24 |
| COc1c(C(C)C)cc(/C=C2\C(=O)Nc3cccc(C)c32)cc1C(C)C [Example 53, 3-(3,5-Diisopropyl-4-methoxybenzylidene)-4-methyl-1,3-dihydroindol-2-one] | > 100 |
| COc1ccc(/C=C2/C(=O)Nc3ncccc32)cc1C(C)C [Example 70, 3-(3-Isopropyl-4-methoxybenzylidene)-1,3-dihydropyrrolo[2,3-b]pyridine-2-one] | 22.6 |
| CNS(=O)(=O)c1ccc2c(c1)C(=Cc1[nH]c3ccccc3c1C)C(=O)N2 (racemic) [Example 154, 3-(3-Methyl-1H-indol-2-ylmethylene)-2-oxo-2,3-dihydro-1H-indole-5-sulfonic acid methylamide] | > 100 |
| COc1c(C(C)C)cc(/C=C2/C(=O)Nc3ccc(N)cc32)cc1C(C)C [Example 20, 5-Amino-3-(3,5-diisopropyl-4-methoxy-benzylidene)-1,3-dihydroindol-2-one] | > 100 |
| COc1cc(/C=C2/C(=O)Nc3ccccc32)c(-c2cccs2)cc1OC [Example 39, 3-(4,5-Dimethoxy-2-thiophen-2-ylbenzylidene)-1,3-dihydroindol-2-one] | > 100 |
| COc1cc(C)c(C=C2C(=O)Nc3ccccc32)cc1C(C)C [Example 8, 3-(5-Isopropyl-4-methoxy-2-methylbenzylidene)-1,3-dihydroindol-2-one] | > 100 |
| CC(=O)Nc1ccc2c(c1)NC(=O)/C2=C/c1ccc(OCCN2CCOCC2)c(-c2ccsc2)c1 [Example 50, N-{3-[4-(2-Morpholin-4-ylethoxy)-3-thiophen-3-ylbenzylidene]-2-oxo-2,3-dihydro-1H-indol-6-yl}-acetamide] | > 100 |
| COc1ccc(/C=C2/C(=O)Nc3ncccc32)cc1C1CCCCC1 [Example 72, 3-(3-Cyclohexyl-4-methoxybenzylidene)-1,3-dihydropyrrolo[2,3-b]pyridin-2-one] | 11.8 |
| COc1ccc(/C=C2\C(=O)Nc3cccc(C)c32)cc1C1CCCCC1 [Example 68, 3-(3-Cyclohexyl-4-methoxybenzylidene)-4-methyl-1,3-dihydroindol-2-one] | > 100 |
| CC(=O)Nc1ccc2c(c1)NC(=O)/C2=C/c1ccc(OCCN2CCOCC2)c(C2CCCCC2)c1 [Example 16, N-{3-[3-Cyclohexyl-4-(2-morpholin-4-ylethoxy)-benzylidene]-2-oxo-2,3-dihydro-1H-indol-6-yl}-acetamide] | > 100 |
| CC1(C)CCc2cc(/C=C3/C(=O)Nc4ccc(Cl)cc43)ccc2O1 [Example 15, 5-Chloro-3-(2,2-dimethyl-chroman-6-ylmethylene)-1,3-dihydroindol-2-one] | > 100 |
| Cc1cc(CCC(=O)O)c(/C=C2\C(=O)Nc3ccc(Cl)cc32)[nH]1 [Example 111, 3-[2-(5-Chloro-2-oxo-1,2-dihydroindol-3-ylidenemethyl)-5-methyl-1H-pyrrol-3-yl]propionic acid] | > 100 |
| COc1c(C(C)C)cc(/C=C2/C(=O)Nc3ccc(Br)cc32)cc1C(C)C [Example 54, 5-Bromo-3-(3,5-diisopropyl-4-methoxybenzylidene)-1,3-dihydroindol-2-one] | > 100 |
| COc1c(C(C)C)cc(/C=C2/C(=O)Nc3cc(NC(=O)OC(C)(C)C)ccc32)cc1C(C)C [Example 52, [3-(3,5-Diisopropyl-4-methoxybenzylidene)-2-oxo-2,3-dihydro-1H-indol-6-yl]-carbamic acid tert-butyl ester] | > 100 |
| Cc1cccc2c1/C(=C/c1cc3ccccc3[nH]1)C(=O)N2 [Example 166, 3-(1H-indol-2-ylmethylene)-4-methyl-1,3-dihydro-indol-2-one] | > 100 |
| COc1ccc2c(c1)/C(=C\c1cc(C(C)C)c(OC)c(C(C)C)c1)C(=O)N2 [Example 17, 3-(3,5-Diisopropyl-4-methoxybenzylidene)-5-methoxy-1,3-dihydroindol-2-one] | > 100 |

| Structure (SMILES) | IC50 [µM] |
| --- | --- |
| COc1ccc(/C=C2/C(=O)Nc3ccc(Cl)cc32)cc1-c1ccccc1 [Example 67, 5-Chloro-3-(6-methoxybiphenyl-3-ylmethylene)-1,3-dihydroindol-2-one] | > 100 |
| COc1ccc(/C=C2/C(=O)Nc3ncccc32)cc1-c1ccccc1 [Example 71, 3-(6-Methoxybiphenyl-3-ylmethylene)-1,3-dihydropyrrolo[2,3-b]pyridin-2-one] | 29.6 |
| COc1cccc(-c2cc(OC)c(OC)cc2/C=C2/C(=O)Nc3ccc(Cl)cc32)c1 [Example 61, 5-Chloro-3-(4,5-3′-Trimethoxybiphenyl-2-ylmethylene)-1,3-dihydroindol-2-one] | > 100 |
| COc1ccc(/C=C2/C(=O)Nc3ccccc32)cc1-c1ccccc1 [Example 65, 3-(6-Methoxybiphenyl-3-ylmethylene)-1,3-dihydroindol-2-one] | > 100 |
| COc1c(C(C)C)cc(/C=C2/C(=O)Nc3ccc(C(C)=O)cc32)cc1C(C)C [Example 5, 5-Acetyl-3-(3,5-diisopropyl-4-methoxybenzylidene)-1,3dihydroindol-2-one] | > 100 |
| COc1c(C)cc(/C=C2/C(=O)Nc3ncccc32)cc1C [Example 56, 3-(4-Methoxy-3,5-dimethylbenzylidene)-1,3-dihydropyrrolo[2,3-b]pyridin-2-one] | 10.1 |
| COc1cc(/C=C2/C(=O)Nc3ccccc32)c(-c2ccc3ccccc3c2)cc1OC [Example 62, 3-(4,5-Dimethoxy-2-naphthalen-2-ylbenzylidene)-1,3-dihydroindol-2-one] | > 100 |
| CC(=O)Nc1ccc2c(c1)NC(=O)/C2=C/c1ccc(OCCN2CCOCC2)c(-c2cccs2)c1 [Example 40, N-{3-[4-(2-Morpholin-4-ylethoxy)-3-thiophen-2-ylbenzylidene]-2-oxo-2,3-dihydro-1H-indol-6-yl}-acetamide] | > 100 |
| COc1cc(C)c(/C=C2/C(=O)Nc3ccc(Br)cc32)cc1C(C)C [Example 36, 5-Bromo-3-(5-isopropyl-4-methoxy-2-methyl-benzylidene)-1,3-dihydroindol-2-one] | > 100 |
| COc1c(C(C)C)cc(/C=C2/C(=O)Nc3cc(N)ccc32)cc1C(C)C [Example 32, 6-Amino-3-(3,5-diisoprotyl-4-methoxy-benzylidene)-1,3-dihydroindol-2-one] | > 100 |
| COc1c(C(C)C)cc(/C=C2/C(=O)Nc3cc(F)ccc32)cc1C(C)C [Example 22, 3-(3,5-Diisopropyl-4-methoxybenzylidene)-6-fluoro-1,3-dihydroindol-2-one] | > 100 |
| O=C1Nc2ccccc2/C1=C\c1ccc2c(c1)CCO2 [Example 66, 3-(2,3-Dihydrobenzofuran-5-ylmethylene)-1,3-dihydroindol-2-one] | > 100 |
| Cc1cccc2c1/C(=C/c1ccc3c(c1)CCC(C)(C)O3)C(=O)N2 [Example 41, 3-(2,2-Dimethylchroman-6-ylmethylene)-4-methyl-1,3-dihydroindol-2-one] | > 100 |
| COC(=O)c1ccc2c(c1)/C(=C\c1cc(C(C)C)c(OC)c(C(C)C)c1)C(=O)N2 [Example 6, 3-(3,5-Diisopropyl-4-methoxybenzylidene)-2-oxo-2,3-dihydro-1H-indole-5-carboxylic acid methyl ester] | > 100 |
| COc1ccc(/C=C2/C(=O)Nc3ccccc32)cc1C1CCCC1 [Example 10, 3-(3-Cyclopentyl-4-methoxybenzylidene)-1,3-dihydroindol-2-one] | > 100 |
| CCOC(=O)c1c(C)[nH]c(/C=C2\C(=O)Nc3cc(-c4ccc(F)cc4)ccc32)c1CCC(=O)O [Example 108, 4-(2-Carboxyethyl)-5-[6-(4-fluorophenyl)-2-oxo-1,2-dihydro-indol-3-ylidenemethyl]-2-methyl-1H-pyrrole-3-carboxylic acid ethyl ester] | > 100 |
| O=C1Nc2ncccc2/C1=C\c1ccc2c(c1)CCO2 [Example 73, 3-(2,3-Dihydrobenzofuran-5-ylmethylene)-1,3-dihydropyrrolo[2,3-b]pyridin-2-one] | 7.9 |
| COc1ccc(/C=C2/C(=O)Nc3ccc(Cl)cc32)cc1-c1cccnc1 [Example 60] | > 100 |
| COc1ccc(/C=C2/C(=O)Nc3ccccc32)cc1C(C)C [Example 7, 3-(3-Isopropyl-4-methoxybenzylidene)-1,3-dihydroindol-2-one] | > 100 |
| O=C1Nc2ccc(F)cc2/C1=C\c1ccc2c(c1)CCO2 [Example 42, 3-(2,3-Dihydrobenzofuran-5-ylmethylene)-5-fluoro-1,3-dihydroindol-2-one] | > 100 |
| O=C1Nc2ccc(Br)cc2/C1=C/c1cc2ccccc2[nH]1 [Example 165, 5-Bromo-3-(1H-indol-2-ylmethylene)-1,3-dihydro-indol-2-one] | > 100 |

Source: patent US6855730B2, “3-methylidenyl-2-indolinone modulators of protein kinase” (Sugen, Inc., priority 1998, dated 2005)
